Assay results published in PubChem BioAssay AID1963981 (Molecular Pharmacology Branch, DTP, NCI, 2024).

Test system: 354836-022-R-J1-PDC multicell spheroid viability
Assay: Anticancer human tumor 354836-022-R-J1-PDC patient-derived head and neck squamous cell carcinoma cell line growth inhibition [PI3K]
Settings: for IC50: curve of first compound; for viability, T/C: stronger effect = lower value; active means viability on the fitted dose curve at most 10% of control; inactive means the rest
Method in brief: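 Complex 3D spheroids (cancer cells + endothelial HUVEC + mesenchymal stem cells); drug pairs of targeted agent x inavolisib/alpelisib/duvelisib/copanlisib; half-log series from ~Cmax, max 10 microM if Cmax unknown; endpoint viability.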
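Further: spheroids exposed to agents for seven days before the viability read.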

CNC(=O)c1ccc(N2C(=S)N(c3ccc(C#N)c(C(F)(F)F)c3)C(=O)C2(C)C)cc1F + Cc1nc(NC(=O)N2CCCC2C(N)=O)sc1-c1ccnc(C(C)(C)C(F)(F)F)c1
> 10 µM: IC50 (second compound 0.0316 µM) | IC50 (second compound 0.1 µM) | IC50 (second compound 0.316 µM) | IC50 (second compound 1 µM) | IC50 (second compound 3.16 µM)
inactive: viability, T/C (second compound 0.0316 µM, first compound 0.0316 µM) 108% | viability, T/C (second compound 0.0316 µM, first compound 0.1 µM) 92.4% | viability, T/C (second compound 0.0316 µM, first compound 0.316 µM) 100% | viability, T/C (second compound 0.0316 µM, first compound 1 µM) 96% | viability, T/C (second compound 0.0316 µM, first compound 3.16 µM) 123% | viability, T/C (second compound 0.0316 µM, first compound 10 µM) 108% | viability, T/C (second compound 0.1 µM, first compound 0.0316 µM) 95.5% | viability, T/C (second compound 0.1 µM, first compound 0.1 µM) 93.4% | viability, T/C (second compound 0.1 µM, first compound 0.316 µM) 111% | viability, T/C (second compound 0.1 µM, first compound 1 µM) 87.9% | viability, T/C (second compound 0.1 µM, first compound 3.16 µM) 109% | viability, T/C (second compound 0.1 µM, first compound 10 µM) 99.2% | viability, T/C (second compound 0.316 µM, first compound 0.0316 µM) 86.8% | viability, T/C (second compound 0.316 µM, first compound 0.1 µM) 99.6% | viability, T/C (second compound 0.316 µM, first compound 0.316 µM) 89.1% | viability, T/C (second compound 0.316 µM, first compound 1 µM) 96.7% | viability, T/C (second compound 0.316 µM, first compound 3.16 µM) 98.2% | viability, T/C (second compound 0.316 µM, first compound 10 µM) 88% | viability, T/C (second compound 1 µM, first compound 0.0316 µM) 93.5% | viability, T/C (second compound 1 µM, first compound 0.1 µM) 84.5% | viability, T/C (second compound 1 µM, first compound 0.316 µM) 76.3% | viability, T/C (second compound 1 µM, first compound 1 µM) 98.7% | viability, T/C (second compound 1 µM, first compound 3.16 µM) 87% | viability, T/C (second compound 1 µM, first compound 10 µM) 82.4% | viability, T/C (second compound 3.16 µM, first compound 0.0316 µM) 54.5% | viability, T/C (second compound 3.16 µM, first compound 0.1 µM) 71.1% | viability, T/C (second compound 3.16 µM, first compound 0.316 µM) 63.3% | viability, T/C (second compound 3.16 µM, first compound 1 µM) 71.3% | viability, T/C (second compound 3.16 µM, first compound 3.16 µM) 68% | viability, T/C (second compound 3.16 µM, first compound 10 µM) 72.1% | viability, T/C (second compound 10 µM, first compound 0.0316 µM) 35.1% | viability, T/C (second compound 10 µM, first compound 0.1 µM) 35% | viability, T/C (second compound 10 µM, first compound 0.316 µM) 35.7% | viability, T/C (second compound 10 µM, first compound 1 µM) 39.8% | viability, T/C (second compound 10 µM, first compound 3.16 µM) 48.9% | viability, T/C (second compound 10 µM, first compound 10 µM) 37.5%
< 0.0316 µM: IC50 (second compound 10 µM)

Cn1cnc2c(F)c(Nc3ccc(Br)cc3Cl)c(C(=O)NOCCO)cc21 + Cc1nc(NC(=O)N2CCCC2C(N)=O)sc1-c1ccnc(C(C)(C)C(F)(F)F)c1
> 3 µM: IC50 (second compound 0.0316 µM) | IC50 (second compound 0.1 µM) | IC50 (second compound 0.316 µM) | IC50 (second compound 1 µM)
inactive: viability, T/C (second compound 0.0316 µM, first compound 0.00949 µM) 85.6% | viability, T/C (second compound 0.0316 µM, first compound 0.03 µM) 82.2% | viability, T/C (second compound 0.0316 µM, first compound 0.0949 µM) 90.7% | viability, T/C (second compound 0.0316 µM, first compound 0.3 µM) 64.6% | viability, T/C (second compound 0.0316 µM, first compound 0.949 µM) 73.7% | viability, T/C (second compound 0.0316 µM, first compound 3 µM) 54.3% | viability, T/C (second compound 0.1 µM, first compound 0.00949 µM) 96.5% | viability, T/C (second compound 0.1 µM, first compound 0.03 µM) 83.1% | viability, T/C (second compound 0.1 µM, first compound 0.0949 µM) 82.9% | viability, T/C (second compound 0.1 µM, first compound 0.3 µM) 76.3% | viability, T/C (second compound 0.1 µM, first compound 0.949 µM) 70.4% | viability, T/C (second compound 0.1 µM, first compound 3 µM) 54.4% | viability, T/C (second compound 0.316 µM, first compound 0.00949 µM) 79.3% | viability, T/C (second compound 0.316 µM, first compound 0.03 µM) 86.2% | viability, T/C (second compound 0.316 µM, first compound 0.0949 µM) 80.5% | viability, T/C (second compound 0.316 µM, first compound 0.3 µM) 78.2% | viability, T/C (second compound 0.316 µM, first compound 0.949 µM) 75.6% | viability, T/C (second compound 0.316 µM, first compound 3 µM) 55.7% | viability, T/C (second compound 1 µM, first compound 0.00949 µM) 71.7% | viability, T/C (second compound 1 µM, first compound 0.03 µM) 75.2% | viability, T/C (second compound 1 µM, first compound 0.0949 µM) 78% | viability, T/C (second compound 1 µM, first compound 0.3 µM) 58.6% | viability, T/C (second compound 1 µM, first compound 0.949 µM) 63.3% | viability, T/C (second compound 1 µM, first compound 3 µM) 52% | viability, T/C (second compound 3.16 µM, first compound 0.00949 µM) 49.1% | viability, T/C (second compound 3.16 µM, first compound 0.03 µM) 58.1% | viability, T/C (second compound 3.16 µM, first compound 0.0949 µM) 55.8% | viability, T/C (second compound 3.16 µM, first compound 0.3 µM) 46% | viability, T/C (second compound 3.16 µM, first compound 0.949 µM) 54.8% | viability, T/C (second compound 3.16 µM, first compound 3 µM) 31.7% | viability, T/C (second compound 10 µM, first compound 0.00949 µM) 33% | viability, T/C (second compound 10 µM, first compound 0.03 µM) 29.7% | viability, T/C (second compound 10 µM, first compound 0.0949 µM) 30% | viability, T/C (second compound 10 µM, first compound 0.3 µM) 30.4% | viability, T/C (second compound 10 µM, first compound 0.949 µM) 25% | viability, T/C (second compound 10 µM, first compound 3 µM) 12.6%
1.1 µM: IC50 (second compound 3.16 µM)
< 0.00949 µM: IC50 (second compound 10 µM)
